The supplement of paper PMC10307832

Columns and labels:
Experiment in all cases: relative viability (nuclei count vs DMSO), 5 days (fraction); higher = more cells survive
[1] = compound: CC[C@@H](C)CNCC(=O)N1CCC2=C([C@@H]1COC3=CC=CC(=C3)C)C=CS2 [RU-SKI 43]
Procedure, shortened: (§1)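 Only plates meeting two conditions passed: control CV below 25% and at least one doubling. Lung cancer cell lines, kept overnight at 37 °C in 1536-well plates, were pinned with five library-drug doses (not always all listed) √10 apart on vehicle-anchored plates and grown 5 days without medium change. A one-step fix, permeabilisation and Hoechst stain preceded 4× imaging and MetaXpress nuclear counting. Viability equals treated-well nuclei divided by vehicle-well nuclei, as the median over plates.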

[2] = compound: CCc1c2c(nc3ccc(OC(=O)N4CCC(N5CCCCC5)CC4)cc13)-c1cc3c(c(=O)n1C2)COC(=O)[C@]3(O)CC [Irinotecan]
Procedure, shortened: as §1

[3] = compound: Cn1cc(-c2cnc3ccc4ccc(CS(=O)(=O)NCc5ccccn5)cc4c(=O)c3c2)cn1 [MK-8033]
Procedure, shortened: as §1

Row | Cell Line | relative viability ([1]; 0.1 µM) | relative viability ([1]; 0.3162 µM) | relative viability ([1]; 1 µM) | relative viability ([1]; 3.162 µM) | relative viability ([1]; 10 µM) | relative viability ([2]; 0.6325 µM) | relative viability ([2]; 2 µM) | relative viability ([2]; 6.325 µM) | relative viability ([2]; 20 µM) | relative viability ([3]; 0.02 µM) | relative viability ([3]; 0.06325 µM) | relative viability ([3]; 0.2 µM) | relative viability ([3]; 0.6325 µM) | relative viability ([3]; 2 µM)
1 | EKVX | 0.873 | 0.971 | 0.977 | 0.994 | 0.965 | 0.711 | 0.804 | 0.504 | 0.261 | 0.993 | 0.858 | 0.906 | 0.935 | 1.03
2 | NCI-H2228 | 0.937 | 1.27 | 1.31 | 1.01 | 0.601 | 0.706 | 0.868 | 0.484 | 0.409 | 1.03 | 0.839 | 0.878 | 1.06 | 0.89
3 | NCI-H596 | 0.945 | 0.965 | 1.01 | 0.963 | 0.983 | 0.889 | 1.07 | 0.914 | 0.643 | 0.918 | 0.838 | 0.971 | 0.983 | 1.04
4 | NCI-H322M | 0.985 | 0.945 | 1.05 | 0.939 | 0.978 | 0.8 | 0.754 | 0.503 | 0.385 | 0.952 | 0.766 | 0.878 | 0.957 | 0.929
5 | NCI-H358 | 0.94 | 1.19 | 0.922 | 0.97 | 0.898 | 0.744 | 0.66 | 0.323 | 0.169 | 0.961 | 0.751 | 0.917 | 0.958 | 0.806
6 | NCI-H1648 | 0.943 | 0.809 | 1.03 | 0.853 | 0.779 | 1.03 | 0.712 | 0.637 | 0.278 | 0.724 | 0.698 | 0.846 | 0.832 | 0.956
7 | NCI-H1395 | 0.978 | 0.928 | 1.05 | 0.899 | 0.885 | – | 0.9 | 0.504 | 0.411 | 0.941 | 0.77 | 0.812 | 0.906 | 0.867
8 | NCI-H1993 | 0.927 | 0.899 | 1.06 | 0.924 | 0.925 | 0.596 | 0.889 | 0.667 | 0.628 | 0.925 | 0.736 | 0.663 | 0.736 | 0.727
9 | CAL-12T | 1.04 | 1.04 | 1.14 | 0.907 | 1 | 0.81 | 1.04 | 0.485 | 0.293 | 1.01 | 0.936 | 0.962 | 1.07 | 0.951
10 | ChaGo-K-1 | 1.02 | 1.02 | 1.1 | 0.988 | 0.946 | 0.759 | 0.7 | 0.295 | 0.261 | 1.03 | 0.907 | 0.941 | 1.01 | 0.873
11 | NCI-H1299 | 1.02 | 1.09 | 1.05 | 1.04 | 0.946 | 0.799 | 0.738 | 0.489 | 0.283 | 1.01 | 1.02 | 0.994 | 0.985 | 1
12 | COR-L23 | 0.943 | 1.14 | 1.16 | 1.16 | 0.921 | 0.412 | 0.419 | 0.215 | 0.144 | 1.01 | 1.02 | 0.947 | 1.06 | 0.981
13 | NCI-H2347 | 0.978 | 1.09 | 1.1 | 0.97 | 0.967 | 0.789 | 0.83 | 0.483 | 0.495 | 1.02 | 1.02 | 0.984 | 1.03 | 1.04
14 | LU99A | 0.93 | 1.08 | 0.95 | 0.966 | 0.851 | 0.38 | 0.355 | 0.215 | 0.212 | 1.05 | 0.897 | 0.817 | 0.947 | 0.926
15 | COR-L 105 | 1.01 | 0.853 | 0.963 | 1.07 | 0.899 | 0.803 | 0.903 | 0.603 | 0.339 | 1.04 | 0.809 | 0.854 | 0.94 | 0.826
16 | PC-3 [JPC-3] | 1.04 | 1.01 | 1.05 | 0.983 | 0.994 | 0.564 | 0.833 | 0.529 | 0.357 | 0.977 | – | 0.921 | 1.06 | 1
17 | NCI-H2009 | 1.02 | 1.07 | 1.07 | 1.06 | 1.01 | 0.716 | 0.733 | 0.272 | 0.153 | 1.05 | 1.01 | 0.953 | 0.945 | 0.961
18 | HCC-366 | 1.11 | 1.23 | 1.05 | 1.08 | 0.979 | 0.591 | 0.615 | 0.093 | 0.081 | 1.03 | 1.03 | 0.977 | 1.02 | 1.06
19 | NCI-H1703 | 0.82 | 1.23 | 0.854 | 0.972 | 0.52 | 0.761 | 1.32 | 0.613 | 0.205 | 0.896 | 0.85 | 0.825 | 0.911 | 0.855
20 | HARA | 1.06 | 0.959 | 1.05 | 1.06 | 0.84 | 0.612 | 0.618 | 0.308 | 0.245 | 0.97 | 0.769 | 0.87 | 0.806 | 0.944
21 | NCI-H1792 | 0.844 | 1.08 | 1.77 | 0.889 | 1.03 | 0.862 | 0.933 | 0.393 | 0.354 | 1.22 | 0.958 | 0.804 | 0.9 | 0.805
22 | HCC-827 | 1.06 | 1.01 | 1.1 | 1.05 | 1.06 | 0.938 | 0.779 | 0.263 | 0.296 | 1.01 | – | 1.01 | 1.01 | 1.05
23 | LXF-289 | 1.05 | 1.08 | 1.02 | 1.1 | 0.999 | 0.892 | 0.965 | 0.659 | 0.265 | 1.02 | 0.983 | 0.955 | 1.16 | 0.995
24 | NCI-H460 | 1.04 | 1.06 | 1.03 | 1.01 | 0.967 | 0.74 | 0.556 | 0.142 | 0.0536 | 0.992 | 0.945 | 0.96 | 1.06 | 1.03
